Molecular target: ABCB1 (Homo sapiens, UniProt P08183)
Type: biochemical

ABCB1, sequence (P08183 whole entry): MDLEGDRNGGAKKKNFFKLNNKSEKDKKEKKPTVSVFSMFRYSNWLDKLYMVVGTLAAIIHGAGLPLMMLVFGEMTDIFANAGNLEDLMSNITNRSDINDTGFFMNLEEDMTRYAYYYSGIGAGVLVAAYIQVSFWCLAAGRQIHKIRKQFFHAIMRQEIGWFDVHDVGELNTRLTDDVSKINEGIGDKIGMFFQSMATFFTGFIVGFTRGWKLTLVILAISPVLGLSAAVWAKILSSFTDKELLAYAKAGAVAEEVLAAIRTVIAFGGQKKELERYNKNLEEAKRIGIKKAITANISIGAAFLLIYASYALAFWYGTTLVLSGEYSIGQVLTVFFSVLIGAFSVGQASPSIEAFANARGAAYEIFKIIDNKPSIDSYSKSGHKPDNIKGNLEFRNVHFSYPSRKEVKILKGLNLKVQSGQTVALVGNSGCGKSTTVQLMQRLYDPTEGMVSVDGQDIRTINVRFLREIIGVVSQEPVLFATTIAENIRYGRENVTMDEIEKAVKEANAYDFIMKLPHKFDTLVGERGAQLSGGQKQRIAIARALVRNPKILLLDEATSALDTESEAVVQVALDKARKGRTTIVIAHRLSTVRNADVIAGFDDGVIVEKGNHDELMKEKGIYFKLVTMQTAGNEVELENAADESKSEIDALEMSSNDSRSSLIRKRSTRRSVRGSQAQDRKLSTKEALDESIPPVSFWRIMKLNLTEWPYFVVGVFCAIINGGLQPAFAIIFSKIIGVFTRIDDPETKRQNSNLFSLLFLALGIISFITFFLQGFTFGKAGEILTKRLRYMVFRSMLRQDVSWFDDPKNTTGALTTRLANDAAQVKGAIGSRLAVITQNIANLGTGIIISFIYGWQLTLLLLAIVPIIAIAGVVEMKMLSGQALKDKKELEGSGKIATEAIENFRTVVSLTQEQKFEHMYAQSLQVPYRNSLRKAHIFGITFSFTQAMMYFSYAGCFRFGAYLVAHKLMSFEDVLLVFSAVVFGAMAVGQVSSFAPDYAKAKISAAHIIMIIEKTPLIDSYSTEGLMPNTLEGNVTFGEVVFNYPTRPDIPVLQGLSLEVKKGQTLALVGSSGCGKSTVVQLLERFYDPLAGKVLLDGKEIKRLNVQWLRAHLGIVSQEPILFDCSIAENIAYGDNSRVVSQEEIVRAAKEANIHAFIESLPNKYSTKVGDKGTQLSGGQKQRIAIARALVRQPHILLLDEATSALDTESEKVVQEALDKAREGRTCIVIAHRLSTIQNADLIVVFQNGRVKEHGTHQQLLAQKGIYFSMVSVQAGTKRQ

Structure (SMILES): CCN(CC)CCCCNc1ncc2cc(-c3cc(OC)cc(OC)c3)c(NC(=O)NC(C)(C)C)nc2n1 [PD173074]
- vanadate-sensitive ATPase stimulation in crude membranes of High-five cells expr: 2.5 to 5 µM

— paper PMC8366681 (Cancer chemotherapy and pharmacology, 2013)
